Measured values reported in US5703059A, “Disaccharide ligands for selectins” (British Biotech Pharmaceuticals Ltd., priority 1993, dated 1997).

Molecular target: T1, E-selectin (Homo sapiens, UniProt P16581)
T1 construct: expressed in transfected cells
T1 sequence (P16581 22-610): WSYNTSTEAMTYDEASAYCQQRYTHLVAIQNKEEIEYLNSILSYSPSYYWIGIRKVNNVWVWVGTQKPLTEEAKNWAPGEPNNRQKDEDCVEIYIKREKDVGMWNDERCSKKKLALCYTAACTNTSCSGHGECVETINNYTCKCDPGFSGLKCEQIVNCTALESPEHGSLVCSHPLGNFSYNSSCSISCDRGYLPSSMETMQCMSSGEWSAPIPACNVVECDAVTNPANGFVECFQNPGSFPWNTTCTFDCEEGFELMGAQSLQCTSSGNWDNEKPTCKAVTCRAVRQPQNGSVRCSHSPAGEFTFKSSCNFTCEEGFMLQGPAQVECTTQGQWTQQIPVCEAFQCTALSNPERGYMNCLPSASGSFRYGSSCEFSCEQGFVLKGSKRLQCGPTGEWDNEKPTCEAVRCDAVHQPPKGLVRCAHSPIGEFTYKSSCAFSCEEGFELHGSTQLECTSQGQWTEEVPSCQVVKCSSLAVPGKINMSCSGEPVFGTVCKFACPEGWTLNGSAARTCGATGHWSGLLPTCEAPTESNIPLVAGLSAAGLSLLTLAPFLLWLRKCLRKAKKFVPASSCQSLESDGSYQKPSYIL
Experiment: Inhibition of E-selectin mediated adhesion of 3H-thymidine labelled U937 cells to E-selectin expressing CHO cells
Format: cell-based
Settings: U937 binding to E-selectin expressing CHO cells, 4° C., 1 hour
Procedure: The test compounds were assayed to determine their effectiveness at inhibiting E-selectin mediated adhesion between a leucocytic cell line, U937, which expresses ligands for E-selectin, and a Chinese Hamster Ovary cell line which stably expresses E-selectin. The assay has been validated with a commercial known ligand of the E-selectin, 3'-sialyl-3-fucosyl lactose (3S'3FL).
A 96 well plate was seeded with E-selectin expressing CHO cells which were confluent on the day of the assay.
U937 cells were incubated overnight with ^3 H thymidine. (Incubation conditions: 2×10^5 U937 cells per ml, 0.0751 μCi ^3 H thymidine).
Hanks Balanced salts solution, 25 mM HEPES, 0.1% azide.
The compounds were dissolved in 1 ml of assay medium. For E8, 10% methanol was added to achieve a homogenous solution.
The pH of the compounds was adjusted to approximately pH 7.2.
The ^3 H thymidine count value at each concentration of inhibitor is the average of six replicates. Maximum binding was measured by binding U937 cells to E-Selectin CHO cells in the absence of any test compounds.
Background was measured by U937 binding to untransfected CHO cells.
On the day of assay the 96 well plate was washed 3 times in ice cold assay medium. 50 μl of test sample was added to each well and incubated on ice for 1 hour. Meanwhile the U937 cells were washed 3 times in ice cold assay medium. resuspended at a concentration of 3×10^6 cells per ml and then 50 μl was added to each plate. The plates were kept on ice and allowed to incubate at 4° C. for 1 hour. Then they were washed ×3 and the remaining cells solubilised and the radioactivity in the samples counted.
The U937 cells that were used in the 1D2 control were pre-incubated in the presence of 0.1 mg/ml gammaglobulin before addition to the plate.

SMILES: CC(=O)N[C@H]1[C@H]([C@H](O)[C@H](O)CO)O[C@@](O[C@H]2[C@@H](O)[C@@H](CO)O[C@@H](O[C@H]3[C@H](O[C@@H]4O[C@@H](C)[C@@H](O)[C@@H](O)[C@@H]4O)[C@@H](O)C(O)O[C@@H]3CO)[C@@H]2O)(C(=O)O)C[C@@H]1O (stereo partly shown) [3'S3FL, 3'-sialyl-3-fucosyl lactose, reference compound]
- inhibition at 500 µM (0.5 mM): 54%

SMILES: COC1OC(C)C(O)(CC(=O)CCCOC2(C(=O)O)CC(O)C(NC(C)=O)C(C(O)C(O)CO)O2)C(O)C1O [E8, α-O-Methyl-4R-[{N-acetyl-α2"-neuraminidylsodium carboxylate}5'-oxy-2'-oxo-pent-1'-yl]-L-fucopyranoside]
- inhibition at 26800 µM (26.8 mM, 10% methanol added): 18.5%

SMILES: COC(=O)C1(OCCCC=CC(O)CC2(O)C(C)OC(OC)C(O)C2O)CC(O)C(NC(C)=O)C(C(O)C(O)CO)O1 [E21, α-O-Methyl-4R-[{N-acetyl-α2"-neuraminidylmethyl}7'-oxy-2'R and S-hydroxy-hept-3'-en-1'-yl]-L-fucopyranoside]
- inhibition at 30700 µM (30.7 mM): 21%

SMILES: COC(=O)C1(OCCCC(=O)CC2(O)C(C)OC(OC)C(O)C2O)CC(O)C(NC(C)=O)C(C(O)C(O)CO)O1 [E7, α-O-Methyl-4R-[{5"N-acetyl-α2"-O-neuraminidylmethyl ester}-5'-oxy-2'-oxo-pent-1'-yl]-L-fucopyranoside]
- inhibition at 17100 µM (17.1 mM): 65%
